Assay results as given in publication PMC10318527, “Utilization of dietary mixed-linkage β-glucans by the Firmicute Blautia producta” (The Journal of Biological Chemistry, 2023).
Values joined by “and” are separate entries in the source; they are usually repeats but may differ in a detail not shown here. Identical values can stand only once. Like-named read-outs stand apart in the source and are kept apart here.

What was measured:
BpGH16MLG = assay: Initial screening of BpGH16MLG against substrates (TLC); format: biochemical, Blautia producta ATCC 27340; details: pH 5.7, 37 °C, 2 h
Procedure: After the appropriate incubation time, the reaction was terminated by boiling (5 min), and generated oligosaccharides were analyzed by thin layer chromatography (TLC). Typically, 1 μl of the reaction mixture was used for TLC analysis. TLC analysis was performed on Silica Gel 60 F254 (Merck), and produced sugars were visualized by spraying TLC with 5% H2SO4 in ethanol, followed by heating.

BpSBPMLG = BpSBPMLG (Blautia producta, UniProt A0ABX6JB09); assay: Isothermal titration calorimetry of oligosaccharide binding to BpSBPMLG; parameters: species or system Blautia producta ATCC 27340
Procedure: The binding of β-(1,4), β-(1,3), and MLG-oligosaccharides to BpSBPMLG was measured at 25 °C in 10 mM sodium phosphate buffer (pH 7) using a MicroCal PEAQ-ITC (Malvern). The protein was extensively dialyzed against 10 mM sodium phosphate and all glycan ligands were also dissolved in the same buffer to minimize the heat of dilution. 13 injections of an oligosaccharide were titrated on BpSBPMLG present in the sample cell. Various preliminary titration setups were tried by changing amounts of protein (5–100 μM) and ligand (50 μM–10 mM) to get the best experimental conditions. Thermodynamic binding parameters [calculates binding affinity (Kd), stoichiometry (n), enthalpy (ΔH), Gibbs free energy change (ΔG), and entropy (ΔS)] were determined using the MicroCal PEAQ-ITC analysis software.

BpGH94MLG [1] = molecular target: T1, BpGH94MLG (Blautia producta, UniProt A0A7G5MNS2); assay: Phosphorolysis activity of BpGH94MLG on substrates (TLC); format: biochemical, Blautia producta ATCC 27340; details: inorganic phosphate, 37 °C
T1 sequence (A0A7G5MNS2 1-804): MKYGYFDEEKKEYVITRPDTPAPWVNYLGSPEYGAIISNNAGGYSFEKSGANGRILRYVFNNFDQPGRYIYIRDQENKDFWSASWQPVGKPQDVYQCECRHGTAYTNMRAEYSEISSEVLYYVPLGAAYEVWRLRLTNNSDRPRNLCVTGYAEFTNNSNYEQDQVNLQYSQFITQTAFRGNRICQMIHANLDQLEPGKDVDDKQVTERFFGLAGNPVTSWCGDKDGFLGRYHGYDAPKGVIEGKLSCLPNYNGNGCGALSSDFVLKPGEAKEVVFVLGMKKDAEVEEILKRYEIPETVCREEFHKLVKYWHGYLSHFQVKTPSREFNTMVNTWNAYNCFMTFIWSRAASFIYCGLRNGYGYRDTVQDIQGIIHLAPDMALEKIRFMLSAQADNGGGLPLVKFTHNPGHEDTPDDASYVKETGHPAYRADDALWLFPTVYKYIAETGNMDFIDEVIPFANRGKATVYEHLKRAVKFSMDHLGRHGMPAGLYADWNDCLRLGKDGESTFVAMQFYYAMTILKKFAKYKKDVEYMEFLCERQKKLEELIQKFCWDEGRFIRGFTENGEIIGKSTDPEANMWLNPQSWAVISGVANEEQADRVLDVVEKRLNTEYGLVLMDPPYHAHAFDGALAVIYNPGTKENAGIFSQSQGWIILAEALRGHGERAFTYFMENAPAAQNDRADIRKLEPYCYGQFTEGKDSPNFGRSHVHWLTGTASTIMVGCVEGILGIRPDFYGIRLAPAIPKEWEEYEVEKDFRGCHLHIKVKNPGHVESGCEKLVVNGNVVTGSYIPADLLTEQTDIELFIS
Procedure: (§1) TLC was used for analyzing enzymatic actions. […] Kinetics parameters for BpGH94MLG were determined with G4G3G, G4G4G3G and cellotriose, following a p-hydroxybenzoic acid hydrazide (PAHBAH) reducing sugar assay ([69]).

BpGH3-AR8MLG = BpGH3-AR8MLG (Blautia producta, UniProt A0ABX6J8C8); format: biochemical, Blautia producta ATCC 27340; details: for Km / kcat: PAHBAH assay, 100 mM HEPES pH 6.5, 37 °C
Procedure: (§2) 150 μl of a freshly prepared 8:2 mixture of reagent A (50 mM sodium sulfite, 0.3 M 4-hydroxybenzhydrazide and 0.6 M HCl) and reagent B (50 mM trisodium citrate, 10 mM CaCl2, 0.5 M NaOH) were added to 50 μl sample. The reaction cocktail was boiled for 10 min at 100 °C. After the reaction was cooled down, the absorbance was recorded at 410 nm using the SpectraMax i3x multi-mode microplate reader. A calibration curve with different concentrations of glucose (0, 2, 4, 8, 16, 40, 80, 100, 200, 300, and 500 μM) was employed for each experiment to calculate the released amount of glucose (reducing end equivalents). The same samples were also used for control measurement, and the control value was subtracted from test reading prior to calculate kinetics parameters. In all cases, the Km, Vmax, and kcat were analyzed on GraphPad Prism. Three independent replicates were used for each test. TLC analyses were used for understanding the enzymatic degradation profiles of various oligosaccharides.

TaCDP = tested on: TaCDP; parameters: method as in PMID 28687766; details: phosphorolytic reaction; cited from earlier work
BpGH94MLG [2] = molecular target: T1, BpGH94MLG; assay: Phosphorolysis kinetics of BpGH94MLG (PAHBAH assay); format: biochemical, Blautia producta ATCC 27340
Procedure: as §1

BpGH3-X62MLG = molecular target: T2, BpGH3-X62MLG (Blautia producta, UniProt A0ABX6JIM0); assay: Hydrolysis kinetics of BpGH3-X62MLG (PAHBAH assay, TLC)
T2 sequence (A0ABX6JIM0 1-920): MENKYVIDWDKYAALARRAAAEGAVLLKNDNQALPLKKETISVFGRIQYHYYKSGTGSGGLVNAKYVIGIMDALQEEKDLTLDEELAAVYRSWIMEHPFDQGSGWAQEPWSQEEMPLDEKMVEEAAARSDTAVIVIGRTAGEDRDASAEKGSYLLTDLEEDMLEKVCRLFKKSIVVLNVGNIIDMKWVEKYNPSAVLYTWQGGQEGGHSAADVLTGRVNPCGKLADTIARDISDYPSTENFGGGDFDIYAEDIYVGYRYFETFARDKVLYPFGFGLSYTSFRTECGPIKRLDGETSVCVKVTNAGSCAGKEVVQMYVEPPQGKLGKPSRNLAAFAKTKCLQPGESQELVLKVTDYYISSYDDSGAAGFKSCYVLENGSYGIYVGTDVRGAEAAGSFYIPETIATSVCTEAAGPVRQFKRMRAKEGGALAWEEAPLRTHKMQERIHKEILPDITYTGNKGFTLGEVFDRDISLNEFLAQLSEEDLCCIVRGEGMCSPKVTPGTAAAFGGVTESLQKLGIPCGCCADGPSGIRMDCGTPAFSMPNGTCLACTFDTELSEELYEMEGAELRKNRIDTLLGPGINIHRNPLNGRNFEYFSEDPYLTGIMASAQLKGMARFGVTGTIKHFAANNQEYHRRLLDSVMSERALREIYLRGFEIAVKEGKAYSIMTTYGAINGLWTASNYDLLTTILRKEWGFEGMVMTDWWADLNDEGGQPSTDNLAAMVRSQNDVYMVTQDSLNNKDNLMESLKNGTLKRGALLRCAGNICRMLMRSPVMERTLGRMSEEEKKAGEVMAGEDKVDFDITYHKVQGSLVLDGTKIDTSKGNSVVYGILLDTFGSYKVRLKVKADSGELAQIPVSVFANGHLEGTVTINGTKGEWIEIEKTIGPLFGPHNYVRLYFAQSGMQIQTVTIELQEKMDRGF
Procedure: as §2

BpGH16MLG (BPGH16) = assay: Michaelis-Menten kinetics of BpGH16MLG on β-glucans (DNS assay); format: biochemical, Blautia producta ATCC 27340; details: native BPGH16; DNS assay; pH 5.7, 37 °C
Procedure: Then, reactions were terminated by boiling for 5 min. Enzymatic assays were determined with 3,5- dinitrosalicylic acid (DNS) assay ([85]). In brief, 0.05 g Na2SO3 and 1 g DNS were mixed in a 50 ml water-containing reagent bottle and stirred about 6 h using a magnetic stirrer. After that, 200 μl phenol was added and made up to 100 ml. A working solution of DNS was prepared by adding 50 μl glucose (20% (w/v) stock) in prepared 100 ml of reagent mixtures and immediately used for experiments without adding NaOH. 80 μl DNS reagent was added to the reaction mixtures and incubated at 100 °C for 10 min, followed by ice-cooling for 10 min. Consequently, recorded the developed color spectrophotometrically at 575 nm ([85]). A standard curve generated by different concentrations of maltose was used for determining released reducing sugars in each case.

[3] = ITC at 25 °C, 10 mM sodium phosphate pH 7.0

BpGH3-AR8MLG, sequence (A0ABX6J8C8 entry or part of it): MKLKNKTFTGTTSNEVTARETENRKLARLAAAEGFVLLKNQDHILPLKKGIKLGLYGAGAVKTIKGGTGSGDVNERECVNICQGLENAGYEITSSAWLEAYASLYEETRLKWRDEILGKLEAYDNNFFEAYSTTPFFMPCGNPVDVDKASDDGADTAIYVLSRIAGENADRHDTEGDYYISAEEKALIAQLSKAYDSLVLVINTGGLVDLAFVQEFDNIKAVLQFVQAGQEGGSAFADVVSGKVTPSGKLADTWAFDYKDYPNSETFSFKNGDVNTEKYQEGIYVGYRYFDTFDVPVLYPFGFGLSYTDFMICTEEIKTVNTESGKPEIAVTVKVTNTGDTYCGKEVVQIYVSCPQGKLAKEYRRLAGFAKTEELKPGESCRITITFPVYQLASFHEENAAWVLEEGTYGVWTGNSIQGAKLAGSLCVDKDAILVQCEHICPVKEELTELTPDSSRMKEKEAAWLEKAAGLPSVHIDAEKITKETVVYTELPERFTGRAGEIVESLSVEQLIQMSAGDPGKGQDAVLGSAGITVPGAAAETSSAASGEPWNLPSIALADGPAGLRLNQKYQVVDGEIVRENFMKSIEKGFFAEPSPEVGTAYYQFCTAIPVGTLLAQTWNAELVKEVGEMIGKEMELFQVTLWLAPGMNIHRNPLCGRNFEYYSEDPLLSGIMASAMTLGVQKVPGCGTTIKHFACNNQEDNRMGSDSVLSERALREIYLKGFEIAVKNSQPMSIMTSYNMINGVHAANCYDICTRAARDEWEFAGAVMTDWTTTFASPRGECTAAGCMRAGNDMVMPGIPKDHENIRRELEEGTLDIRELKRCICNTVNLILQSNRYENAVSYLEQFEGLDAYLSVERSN
BpSBPMLG, sequence (A0ABX6JB09 entry or part of it): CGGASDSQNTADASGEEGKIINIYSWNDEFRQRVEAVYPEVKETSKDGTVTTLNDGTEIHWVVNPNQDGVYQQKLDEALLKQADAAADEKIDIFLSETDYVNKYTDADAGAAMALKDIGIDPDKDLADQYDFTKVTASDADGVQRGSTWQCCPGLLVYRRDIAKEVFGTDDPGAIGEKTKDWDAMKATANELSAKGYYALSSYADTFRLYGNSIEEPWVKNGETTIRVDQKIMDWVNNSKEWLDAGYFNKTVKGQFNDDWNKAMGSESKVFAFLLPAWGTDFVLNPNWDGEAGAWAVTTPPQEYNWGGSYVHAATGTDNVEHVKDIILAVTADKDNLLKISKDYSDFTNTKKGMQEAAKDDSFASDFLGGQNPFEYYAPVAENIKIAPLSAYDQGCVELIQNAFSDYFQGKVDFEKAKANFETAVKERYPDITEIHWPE

Compound | activity of BpGH16MLG on substrate (initial screening) (BpGH16MLG) | Kd (BpSBPMLG) | binding to BpSBPMLG (in words) (BpSBPMLG; ITC) | -TΔS^0 (BpSBPMLG; [3]) | n (binding stoichiometry) (BpSBPMLG; [3]) | ΔG^0 (BpSBPMLG; [3]) | ΔH (BpSBPMLG; [3]) | phosphorolysis activity of BpGH94MLG (in words) (BpGH94MLG [1]) | also measured
O=C[C@H](O)[C@@H](O)[C@H](O[C@@H]1O[C@H](CO)[C@@H](O)[C@H](O)[C@H]1O)[C@H](O)CO [Cellobiose] | did not show activity | 30.6 µM | some affinity | 0.8 kcal/mol | 0.78± 0.18 | -6.2 kcal/mol | -7.0 ± 2.2 kcal/mol | did not show any phosphorolysis activity | Km (BpGH3-AR8MLG): 200 ± 30 µM; kcat (BpGH3-AR8MLG): 8 ± 0.1 s⁻¹; Km (TaCDP): 120 µM; kcat (TaCDP): 0.23 s⁻¹
yeast β-glucan | did cleave | – | – | – | – | – | – | – | –
OC[C@H]1O[C@H](O[C@H]2[C@H](O)[C@@H](O)[C@H](O)O[C@@H]2CO)[C@H](O)[C@@H](O)[C@@H]1O [maltose] | did not show activity | – | no detectable affinity | – | – | – | – | did not show any phosphorolysis activity | –
OC[C@H]1O[C@@H](O[C@H]2[C@H](O)[C@@H](CO)OC(O)[C@@H]2O)[C@H](O)[C@@H](O)[C@@H]1O (some centres unmarked) [Laminaribiose] | did not show activity | 22.1 µM | some affinity | – | 1.03 ± 0.02 | -6.35 kcal/mol | -3.14 ± 0.16 kcal/mol | did not show any phosphorolysis activity | Km (BpGH3-AR8MLG): 240 ± 30 µM; kcat (BpGH3-AR8MLG): 12 ± 0.2 s⁻¹
OC[C@H]1O[C@@H](O[C@@H]2[C@@H](O)[C@H](O[C@@H]3[C@@H](O)[C@H](O[C@H]4[C@H](O)[C@@H](CO)OC(O)[C@@H]4O)O[C@H](CO)[C@H]3O)O[C@H](CO)[C@H]2O)[C@H](O)[C@@H](O)[C@@H]1O (some centres unmarked) [Laminaritetraose] | – | – | – | 5.29 kcal/mol | – | – | -0.15 ± 0.12 kcal/mol | – | Kd (BpSBPMLG; ITC, read-out: Kd): 5600 µM
OC[C@H]1O[C@@H](O[C@H]2[C@H](O)[C@@H](O)[C@H](O[C@H]3[C@H](O)[C@@H](O)[C@H](O[C@H]4[C@H](O)[C@@H](O)C(O)O[C@@H]4CO)O[C@@H]3CO)O[C@@H]2CO)[C@H](O)[C@@H](O)[C@@H]1O (some centres unmarked) [Cellotetraose] | – | 0.75 µM | – | 8.25 kcal/mol | 0.45 ± 0.02 | -8.35 kcal/mol | -16.6 ± 0.75 kcal/mol | – | n (binding stoichiometry) (BpSBPMLG; ITC at 25 °C, 10 mM sodium phosphate pH 7.0, listed as cellotetraose): 0.45; Km (BpGH3-AR8MLG): 470 ± 60 µM; kcat (BpGH3-AR8MLG): 20 ± 0.2 s⁻¹
OC[C@H]1O[C@@H](O[C@H]2[C@H](O)[C@@H](O)[C@H](O)O[C@@H]2CO)[C@H](O)[C@@H](O)[C@H]1O [lactose] | – | – | no detectable affinity | – | – | – | – | – | –
Gentiobiose | did not show activity | – | no detectable affinity | – | – | – | – | did not show any phosphorolysis activity | –
lentinan | did cleave | – | – | – | – | – | – | – | –
OC[C@H]1O[C@@H](O[C@H]2[C@H](O)[C@@H](O)[C@H](O[C@H]3[C@H](O)[C@@H](O)[C@H](O[C@H]4[C@H](O)[C@@H](CO)OC(O)[C@@H]4O)O[C@@H]3CO)O[C@@H]2CO)[C@H](O)[C@@H](O)[C@@H]1O (stereo partly drawn) [G4G4G3G, Glc-β-1-4-Glc-β-1-4-Glc-β-1-3-Glc] | – | 5.14 µM | – | 5.7 kcal/mol | 0.77 and 0.77 ± 0.02 | -7.22 kcal/mol | -12.9 ± 0.85 kcal/mol | – | Kd (BpSBPMLG; [3]): 5.14 µM; Km fold-change (BpGH94MLG [2]): ~0.75 fold; kcat/Km higher compared to G4G3G (BpGH94MLG [2]): 1.6 fold; kcat/Km higher compared to cellotriose (BpGH94MLG [2]): 2.4 fold; cleavage by BpGH3-AR8MLG (in words) (BpGH3-AR8MLG; TLC): cleaved; kcat (BpGH3-X62MLG; PAHBAH assay, 100 mM HEPES pH 6.5, 37 °C): 18 ± 0.3 s⁻¹; cleavage by BpGH3-X62MLG (in words) (BpGH3-X62MLG; TLC): cleaved
OC[C@H]1O[C@@H](O[C@@H]2[C@@H](O)[C@H](O[C@H]3[C@H](O)[C@@H](CO)OC(O)[C@@H]3O)O[C@H](CO)[C@H]2O)[C@H](O)[C@@H](O)[C@@H]1O (some centres unmarked) [Laminaritriose] | did cleave | 3.41 µM | – | 3.8 kcal/mol | 0.9 ± 0.01 | -7.46 kcal/mol | -3.66 ± 0.02 kcal/mol | did not show any phosphorolysis activity | –
Oat β-glucan | did cleave | – | – | – | – | – | – | – | Km (BpGH16MLG (BPGH16)): 0.32 ± 0.05 mg/mL; kcat (BpGH16MLG (BPGH16)): 46 ± 0.8 s⁻¹
OC[C@H]1O[C@@](CO)(O[C@H]2O[C@H](CO)[C@@H](O)[C@H](O)[C@H]2O)[C@@H](O)[C@@H]1O [sucrose] | did not show activity | – | – | – | – | – | – | did not show any phosphorolysis activity | –
